System: Plasmodium berghei
Test: Luciferase/luciferin-expressing antifolate-resistant parasites were used to infect a culture of HepG2 cells that were pre-incubated with compounds. Infected hepatocytes emit light due to the luciferase reaction. Assay results are presented as the percent inhibition of light emission compared to control. […]
Format: functional
Conditions: sporozoite; for IC90: read-out: LUCIFERASE INFECTION ASSAY - IC90

SMILES	IC90 [µM]	other results
Cc1ccc(C(=O)/C=C/C(=O)c2ccc(C)cc2)cc1	> 10	IC50 (FFLUC_HILL_SLOPE 1.4, FFLUC_R_SQUARED 0.731, read-out: LUCIFERASE INFECTION ASSAY - IC50): > 10 µM
NC1=Nc2cccc3cccc(c23)N1	12.9	IC50 (FFLUC_HILL_SLOPE 1.44, FFLUC_R_SQUARED 0.698, HEPG2TOX_HILL_SLOPE 2.55, HEPG2TOX_R_SQUARED 0.966, PBLUC_HILL_SLOPE 3.15, PBLUC_R_SQUARED 0.786, read-out: LUCIFERASE INFECTION ASSAY - IC50): 6.42 µM
O=C(Nc1ccccc1)c1cn(-c2ccc3c(c2)OCCO3)nn1	5.96	IC50 (FFLUC_HILL_SLOPE 1.49, FFLUC_R_SQUARED 0.912, PBLUC_HILL_SLOPE 0.315, PBLUC_R_SQUARED 0.673, read-out: LUCIFERASE INFECTION ASSAY - IC50): 0.00562 µM
COC(=O)c1c(NC(=O)c2ccoc2)c2cc(NCCc3ccccc3)cnc2n1Cc1ccccc1	> 6.67	IC50 (FFLUC_HILL_SLOPE 1.52, FFLUC_R_SQUARED 0.257, PBLUC_HILL_SLOPE 25.4, PBLUC_R_SQUARED 0.141, read-out: LUCIFERASE INFECTION ASSAY - IC50): > 6.67 µM
Cn1cnc([N+](=O)[O-])c1Sc1cccs1	> 13.7	IC50 (FFLUC_HILL_SLOPE 1.45, FFLUC_R_SQUARED 0.647, PBLUC_HILL_SLOPE 13.1, PBLUC_R_SQUARED 0.224, read-out: LUCIFERASE INFECTION ASSAY - IC50): > 13.7 µM
O=C1C=CC(=O)N1c1ccc(Cl)cc1Br	8.68	IC50 (FFLUC_HILL_SLOPE 1.45, FFLUC_R_SQUARED 0.668, PBLUC_HILL_SLOPE 3.96, PBLUC_R_SQUARED 0.503, read-out: LUCIFERASE INFECTION ASSAY - IC50): 4.99 µM
O=[N+]([O-])c1ccc2c(c1)nc(SCc1ccc(Cl)cc1Cl)n2-c1ccccc1	> 10	IC50 (FFLUC_HILL_SLOPE 1.41, FFLUC_R_SQUARED 0.219, read-out: LUCIFERASE INFECTION ASSAY - IC50): > 10 µM
COc1ccc(C2C3CSc4ccccc4C3=NN2c2ccccc2)cc1 (centres undefined)	> 8.86	IC50 (FFLUC_HILL_SLOPE 1.37, FFLUC_R_SQUARED 0.894, PBLUC_HILL_SLOPE 1.03, PBLUC_R_SQUARED 0.404, read-out: LUCIFERASE INFECTION ASSAY - IC50): 4.95 µM
COc1ccccc1N1CCN(c2nc(=O)c3c([nH]2)CCC3)CC1	1.26	IC50 (FFLUC_HILL_SLOPE 1.43, FFLUC_R_SQUARED 0.67, PBLUC_HILL_SLOPE 2.78, PBLUC_R_SQUARED 0.645, read-out: LUCIFERASE INFECTION ASSAY - IC50): 0.572 µM
CCOC(=O)c1sc(N2N=C3/C(=C/c4ccccc4Cl)CCCC3C2c2ccccc2Cl)nc1C (centres undefined)	> 10	IC50 (FFLUC_HILL_SLOPE 1.4, FFLUC_R_SQUARED 0.297, PBLUC_HILL_SLOPE 2.64, PBLUC_R_SQUARED 0.0563, read-out: LUCIFERASE INFECTION ASSAY - IC50): 4.97 µM
Cc1cc(C(=O)NCc2nnc3ccccn23)c(C)n1C1CCCCC1	6.61	IC50 (FFLUC_HILL_SLOPE 1.4, FFLUC_R_SQUARED 0.0106, PBLUC_HILL_SLOPE 1.41, PBLUC_R_SQUARED 0.709, read-out: LUCIFERASE INFECTION ASSAY - IC50): 1.39 µM
CNC(=O)c1ccc(/C=C/C(=O)N(c2ccc(C)c(F)c2)c2nc3ccccc3s2)cc1	8.92	IC50 (FFLUC_HILL_SLOPE 1.49, FFLUC_R_SQUARED 0.0757, PBLUC_HILL_SLOPE 4.44, PBLUC_R_SQUARED 0.348, read-out: LUCIFERASE INFECTION ASSAY - IC50): 5.44 µM
COc1ccc(Nc2nccn3c(-c4cccc(C(=O)NCCO)c4)cnc23)cc1	4.59	IC50 (FFLUC_HILL_SLOPE 1.47, FFLUC_R_SQUARED 0.89, PBLUC_HILL_SLOPE 0.68, PBLUC_R_SQUARED 0.895, read-out: LUCIFERASE INFECTION ASSAY - IC50): 0.181 µM
O=C(Nc1ccccc1Sc1ncc([N+](=O)[O-])s1)c1cccs1	> 9.08	IC50 (FFLUC_HILL_SLOPE 1.44, FFLUC_R_SQUARED 0.479, read-out: LUCIFERASE INFECTION ASSAY - IC50): > 9.08 µM
O=C1CCCN1c1ccc(C2=NNC(=NC3CC3)SC2)cc1	0.932	IC50 (FFLUC_HILL_SLOPE 1.46, FFLUC_R_SQUARED 0.93, PBLUC_HILL_SLOPE 0.517, PBLUC_R_SQUARED 0.899, read-out: LUCIFERASE INFECTION ASSAY - IC50): 0.0133 µM
CC(C)Cc1ccc(C(=O)CC2OC(=O)c3ccccc32)cc1 (centres undefined)	> 10.7	IC50 (FFLUC_HILL_SLOPE 1.52, FFLUC_R_SQUARED 0.66, PBLUC_HILL_SLOPE 3.96, PBLUC_R_SQUARED 0.504, read-out: LUCIFERASE INFECTION ASSAY - IC50): 8.38 µM

SMILES	IC90 [µM]	other results
O=C(O)c1ccc(Cl)cc1Oc1ccccc1	> 13.3	IC50 (FFLUC_HILL_SLOPE 1.52, FFLUC_R_SQUARED 0.302, read-out: LUCIFERASE INFECTION ASSAY - IC50): > 13.3 µM
C=CCSc1nnc(NC(=O)C2Cc3ccccc3CN2S(=O)(=O)c2ccccc2F)s1 (centres undefined)	> 10	IC50 (FFLUC_HILL_SLOPE 1.45, FFLUC_R_SQUARED 0.33, PBLUC_HILL_SLOPE 5.35, PBLUC_R_SQUARED 0.362, read-out: LUCIFERASE INFECTION ASSAY - IC50): 7.22 µM
CC(C)(C)c1ccc(C(=O)Nc2ncccc2O)cc1	0.647	IC50 (FFLUC_HILL_SLOPE 1.42, FFLUC_R_SQUARED 0.79, PBLUC_HILL_SLOPE 0.554, PBLUC_R_SQUARED 0.72, read-out: LUCIFERASE INFECTION ASSAY - IC50): 0.0122 µM
CSc1nnnn1-c1cccc(NC(=O)c2cc(-c3cc(C)oc3C)nc3c2cnn3C(C)C)c1	> 10	IC50 (FFLUC_HILL_SLOPE 1.52, FFLUC_R_SQUARED 0.0983, PBLUC_HILL_SLOPE 1.97, PBLUC_R_SQUARED 0.288, read-out: LUCIFERASE INFECTION ASSAY - IC50): 5.3 µM
C=c1ccccc1=C1NN=C(Nc2ccc(F)c(F)c2F)O1	> 10	IC50 (FFLUC_HILL_SLOPE 1.45, FFLUC_R_SQUARED 0.745, PBLUC_HILL_SLOPE 0.464, PBLUC_R_SQUARED 0.746, read-out: LUCIFERASE INFECTION ASSAY - IC50): 0.97 µM
CCOc1ccc(C2=NNC(=Nc3cccc(S(=O)(=O)N(C)C)c3)SC2)cc1	4.99	IC50 (FFLUC_HILL_SLOPE 1.45, FFLUC_R_SQUARED 0.572, HEPG2TOX_HILL_SLOPE 2.21, HEPG2TOX_R_SQUARED 0.976, PBLUC_HILL_SLOPE 3.43, PBLUC_R_SQUARED 0.708, read-out: LUCIFERASE INFECTION ASSAY - IC50): 2.63 µM
CCN(CC)S(=O)(=O)c1cccc(C(=O)c2c(C)c(Sc3ccc(Cl)cc3)c3ccccn23)c1	> 10	IC50 (FFLUC_HILL_SLOPE 1.47, FFLUC_R_SQUARED 0.14, read-out: LUCIFERASE INFECTION ASSAY - IC50): > 10 µM
O=C(Nc1nn2cc(-c3ccccc3)nc2s1)C1CCC1	1.39	IC50 (FFLUC_HILL_SLOPE 1.5, FFLUC_R_SQUARED 0.884, PBLUC_HILL_SLOPE 0.386, PBLUC_R_SQUARED 0.673, read-out: LUCIFERASE INFECTION ASSAY - IC50): 0.0047 µM
O=c1c(Cl)c(Cl)cnn1-c1cnc2ccccc2n1	> 11.3	IC50 (FFLUC_HILL_SLOPE 1.37, FFLUC_R_SQUARED 0.431, HEPG2TOX_HILL_SLOPE 2.28, HEPG2TOX_R_SQUARED 0.959, PBLUC_HILL_SLOPE 0.482, PBLUC_R_SQUARED 0.686, read-out: LUCIFERASE INFECTION ASSAY - IC50): 0.149 µM
NC(=O)c1cc(-c2csc(NC(=O)Cc3ccc(Cl)c(Cl)c3)n2)c[nH]1	> 10	IC50 (FFLUC_HILL_SLOPE 1.47, FFLUC_R_SQUARED 0.0625, read-out: LUCIFERASE INFECTION ASSAY - IC50): > 10 µM
c1cc2c(cc1C1=NNC(=NC3CC3)SC1)CCCC2	0.277	IC50 (FFLUC_HILL_SLOPE 1.51, FFLUC_R_SQUARED 0.952, HEPG2TOX_HILL_SLOPE 2.86, HEPG2TOX_R_SQUARED 0.94, PBLUC_HILL_SLOPE 0.977, PBLUC_R_SQUARED 0.884, read-out: LUCIFERASE INFECTION ASSAY - IC50): 0.0292 µM
Nc1ncc(-c2ccccc2Oc2ccccc2)cc1-c1ccc(O)cc1	> 9.31	IC50 (FFLUC_HILL_SLOPE 1.5, FFLUC_R_SQUARED 0.249, PBLUC_HILL_SLOPE 4.63, PBLUC_R_SQUARED 0.261, read-out: LUCIFERASE INFECTION ASSAY - IC50): 6.66 µM
CCOc1ccc(OS(=O)(=O)c2ccc(-n3ncc(Cl)c(Cl)c3=O)cc2)cc1	3.34	IC50 (FFLUC_HILL_SLOPE 1.43, FFLUC_R_SQUARED 0.409, HEPG2TOX_HILL_SLOPE 3.88, HEPG2TOX_R_SQUARED 0.973, PBLUC_HILL_SLOPE 4.23, PBLUC_R_SQUARED 0.659, read-out: LUCIFERASE INFECTION ASSAY - IC50): 1.99 µM
O=c1c(Cl)c(Cl)cnn1-c1ccc(C(F)(F)F)cc1	5	IC50 (FFLUC_HILL_SLOPE 1.51, FFLUC_R_SQUARED 0.59, HEPG2TOX_HILL_SLOPE 2.35, HEPG2TOX_R_SQUARED 0.929, PBLUC_HILL_SLOPE 2.87, PBLUC_R_SQUARED 0.611, read-out: LUCIFERASE INFECTION ASSAY - IC50): 2.33 µM
O=C(Nc1cccc([N+](=O)[O-])c1)c1[nH]nc2ccccc12	2.96	IC50 (FFLUC_HILL_SLOPE 1.37, FFLUC_R_SQUARED 0.513, PBLUC_HILL_SLOPE 0.728, PBLUC_R_SQUARED 0.84, read-out: LUCIFERASE INFECTION ASSAY - IC50): 0.145 µM
COc1cccc(N2C(=O)C=CC2=O)c1	> 16.2	IC50 (FFLUC_HILL_SLOPE 1.51, FFLUC_R_SQUARED 0.52, PBLUC_HILL_SLOPE 2.51, PBLUC_R_SQUARED 0.451, read-out: LUCIFERASE INFECTION ASSAY - IC50): 10.2 µM

From ChEMBL document CHEMBL4483862, “Open-source discovery of chemical leads for next-generation chemoprotective antimalarials” (2018)
